Data taken from US11739090B2, “Substituted pyrazlo[3,4-c]pyridines as selective BTK kinase inhibitors” (JUMBO DRUG BANK CO., LTD., priority 2019, dated 2023).
Blank lines part the entries; values can stand above or below the molecule they belong to.

Experiments:
Assay type in all cases: biochemical
EGFR = EGFR (Homo sapiens (Human), UniProt P00533); assay: EGFR kinase test (33P-ATP filter binding); settings: for The ratio of the activities of EGFR and BTK: EGFR IC50 / BTK IC50 (first figure of the cell); for IC50: final ATP 2 μM, 120 minutes at room temperature
Chain of EGFR (P00533 25-1210): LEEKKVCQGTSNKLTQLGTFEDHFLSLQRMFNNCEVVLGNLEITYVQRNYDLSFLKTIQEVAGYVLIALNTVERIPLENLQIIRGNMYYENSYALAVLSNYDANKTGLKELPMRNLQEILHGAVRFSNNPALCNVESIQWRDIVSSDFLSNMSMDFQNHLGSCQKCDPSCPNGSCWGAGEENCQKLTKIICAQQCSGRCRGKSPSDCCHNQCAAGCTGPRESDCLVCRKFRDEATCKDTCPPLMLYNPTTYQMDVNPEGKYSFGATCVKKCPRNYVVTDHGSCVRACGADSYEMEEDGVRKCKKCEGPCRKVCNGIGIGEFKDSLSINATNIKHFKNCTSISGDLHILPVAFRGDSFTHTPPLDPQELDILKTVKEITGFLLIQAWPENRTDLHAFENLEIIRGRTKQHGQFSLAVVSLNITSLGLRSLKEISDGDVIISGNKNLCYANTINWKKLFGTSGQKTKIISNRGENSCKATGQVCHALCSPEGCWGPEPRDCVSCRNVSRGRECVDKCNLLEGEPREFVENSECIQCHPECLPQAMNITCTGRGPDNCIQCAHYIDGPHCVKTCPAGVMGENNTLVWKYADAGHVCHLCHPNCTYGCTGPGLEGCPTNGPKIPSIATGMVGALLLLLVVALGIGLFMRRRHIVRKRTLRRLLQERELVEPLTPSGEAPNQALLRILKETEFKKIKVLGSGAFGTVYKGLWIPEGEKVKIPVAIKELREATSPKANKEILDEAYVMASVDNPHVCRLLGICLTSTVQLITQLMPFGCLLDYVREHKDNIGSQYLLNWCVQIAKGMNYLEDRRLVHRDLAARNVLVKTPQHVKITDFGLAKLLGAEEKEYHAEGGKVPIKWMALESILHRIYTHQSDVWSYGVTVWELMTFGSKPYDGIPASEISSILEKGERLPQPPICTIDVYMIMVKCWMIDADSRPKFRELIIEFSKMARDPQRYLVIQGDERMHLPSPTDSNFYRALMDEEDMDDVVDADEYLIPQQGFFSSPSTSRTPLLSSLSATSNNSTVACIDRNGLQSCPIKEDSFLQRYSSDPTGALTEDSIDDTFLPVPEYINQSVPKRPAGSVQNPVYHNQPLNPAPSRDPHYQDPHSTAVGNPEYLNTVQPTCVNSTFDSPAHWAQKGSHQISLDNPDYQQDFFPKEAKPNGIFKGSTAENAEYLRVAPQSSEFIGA
Description: (§1) Experimental Example 2: EGFR, ITK and TEC Kinase Test
(§2) buffer conditions: 20 mM HEPES (pH 7.5), 10 mM MgCl2, 1 mM EGTA, 0.02% Brij35, 0.02 mg/mL BSA, 0.1 mm Na3VO4, 2 mm DTT, 1% DMSO.
(§3) 2.1. Preparing an indicator substrate in a freshly prepared reaction buffer
(§4) 2.2. Delivering the desired cofactor to the above substrate solution
(§5) 2.3. Delivering the indicated kinase to the substrate solution and gently mixing same
(§6) 2.4. Delivering the compounds in DMSO to the kinase reaction mixture using acoustic technology (Echo550)
(§7) 2.5. Initiating the reaction (final concentration of ATP: 2 μM, 5 μM and 5 μM respectively) by delivering ^33P-ATP (final specific activity: 0.01 μci/μL) to the reaction mixture
(§8) 2.6. Incubating the kinase reaction at room temperature for 120 minutes
(§9) 2.7. Recording the reaction on P81 ion exchange paper (Whatman #3698-915)
(§10) 2.8. Washing the filter widely with 0.75% phosphoric acid
(§11) 2.9. Measuring the radioactive phosphorylated substrate remaining on the filter paper.
(§12) 3. Data analysis: the kinase activity data is expressed as the percentage of the remaining kinase activity in a test sample compared to a reaction with a carrier (dimethyl sulfoxide), and IC50 values and curve fitting are obtained using Prism4 software (GraphPad).

TEC = TEC (Homo sapiens (Human), UniProt P42680); assay: TEC kinase test (33P-ATP filter binding); settings: for The ratio of the activities of TEC and BTK: TEC IC50 / BTK IC50 (third figure of the cell); for IC50: final ATP 5 μM, 120 minutes at room temperature
Chain of TEC (P42680 whole entry): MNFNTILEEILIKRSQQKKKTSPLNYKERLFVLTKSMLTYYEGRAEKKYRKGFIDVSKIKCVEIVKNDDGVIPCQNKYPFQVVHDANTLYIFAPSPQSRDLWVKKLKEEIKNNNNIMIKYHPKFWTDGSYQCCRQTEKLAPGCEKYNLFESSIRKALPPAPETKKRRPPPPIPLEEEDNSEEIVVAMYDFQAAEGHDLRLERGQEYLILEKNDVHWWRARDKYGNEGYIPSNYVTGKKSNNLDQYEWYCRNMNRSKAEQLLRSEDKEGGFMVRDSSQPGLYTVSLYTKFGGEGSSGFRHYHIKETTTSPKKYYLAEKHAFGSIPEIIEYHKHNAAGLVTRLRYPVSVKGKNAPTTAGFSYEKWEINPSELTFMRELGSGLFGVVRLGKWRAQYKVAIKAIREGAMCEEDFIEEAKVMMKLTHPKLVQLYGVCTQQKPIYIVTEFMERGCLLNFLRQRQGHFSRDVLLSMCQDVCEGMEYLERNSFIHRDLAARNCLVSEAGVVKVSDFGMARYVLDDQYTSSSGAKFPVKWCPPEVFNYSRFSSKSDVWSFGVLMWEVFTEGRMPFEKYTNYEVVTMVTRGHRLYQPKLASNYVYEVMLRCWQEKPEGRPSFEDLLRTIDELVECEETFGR
Description: as §1, §2, §3, §4, §5, §6, §7, §8, §9, §10, §11, §12

BTK = BTK (Homo sapiens (Human), UniProt Q06187); assay: BTK kinase test (33P-ATP filter binding); settings: final ATP 5 μM
Chain of BTK (Q06187 whole entry): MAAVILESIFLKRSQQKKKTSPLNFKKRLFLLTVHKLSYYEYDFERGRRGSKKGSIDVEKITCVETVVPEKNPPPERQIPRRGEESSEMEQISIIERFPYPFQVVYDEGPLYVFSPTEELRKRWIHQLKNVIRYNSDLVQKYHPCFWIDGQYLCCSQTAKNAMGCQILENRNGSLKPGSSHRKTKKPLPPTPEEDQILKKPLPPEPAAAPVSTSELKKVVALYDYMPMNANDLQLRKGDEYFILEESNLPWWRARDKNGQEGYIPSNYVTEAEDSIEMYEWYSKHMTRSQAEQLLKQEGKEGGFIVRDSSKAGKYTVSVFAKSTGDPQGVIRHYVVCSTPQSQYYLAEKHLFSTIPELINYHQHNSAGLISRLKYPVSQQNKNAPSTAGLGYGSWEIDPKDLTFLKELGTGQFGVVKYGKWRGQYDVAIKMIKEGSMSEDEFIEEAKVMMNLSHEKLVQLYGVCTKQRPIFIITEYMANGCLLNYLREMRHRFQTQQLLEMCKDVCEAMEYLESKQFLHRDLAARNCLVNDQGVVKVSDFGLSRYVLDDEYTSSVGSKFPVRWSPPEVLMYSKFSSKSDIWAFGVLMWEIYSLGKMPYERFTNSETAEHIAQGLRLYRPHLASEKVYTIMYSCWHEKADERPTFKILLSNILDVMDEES
Description: Experimental Example 1: BTK Kinase Test […]
as §2, §3, §4, §5, §6
2.5. Initiating the reaction (final concentration of ATP: 5 μM) by delivering ^33P-ATP (final specific activity: 0.01 μci/μL) to the reaction mixture
as §8, §9, §10
2.9. Measuring the radioactive phosphorylated substrate remaining on the filter paper. […]
the kinase activity data is expressed as the percentage of the remaining kinase activity in a test sample compared to a reaction with a carrier (dimethyl sulfoxide), and IC50 values and curve fitting are obtained using Prism4 software (GraphPad).

ITK = ITK (Homo sapiens (Human), UniProt Q08881); assay: ITK kinase test (33P-ATP filter binding); settings: for The ratio of the activities of ITK and BTK: ITK IC50 / BTK IC50 (second figure of the cell); for IC50: final ATP 5 μM
Chain of ITK (Q08881 whole entry): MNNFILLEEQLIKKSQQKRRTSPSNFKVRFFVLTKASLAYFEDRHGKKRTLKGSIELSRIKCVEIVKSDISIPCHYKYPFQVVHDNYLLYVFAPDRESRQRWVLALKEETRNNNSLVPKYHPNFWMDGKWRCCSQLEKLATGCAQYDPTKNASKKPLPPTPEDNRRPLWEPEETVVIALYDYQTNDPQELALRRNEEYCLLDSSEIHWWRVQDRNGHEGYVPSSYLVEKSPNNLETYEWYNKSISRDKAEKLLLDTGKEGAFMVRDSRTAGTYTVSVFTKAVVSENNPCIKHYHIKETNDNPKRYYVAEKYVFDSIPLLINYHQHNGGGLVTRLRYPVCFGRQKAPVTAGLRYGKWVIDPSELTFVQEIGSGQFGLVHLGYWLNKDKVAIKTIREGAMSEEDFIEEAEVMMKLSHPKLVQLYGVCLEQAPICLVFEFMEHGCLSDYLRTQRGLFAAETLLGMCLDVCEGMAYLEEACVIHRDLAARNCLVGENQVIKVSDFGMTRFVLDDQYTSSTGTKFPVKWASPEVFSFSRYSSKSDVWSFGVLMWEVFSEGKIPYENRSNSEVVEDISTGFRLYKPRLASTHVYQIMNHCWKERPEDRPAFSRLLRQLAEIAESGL
Description: as §1, §2, §3, §4, §5, §6, §7, §8, §9, §10, §11, §12

[1] = Table 1, 120 minutes at room temperature

Compound: C=CC(=O)N1CCC[C@@H](c2nn(-c3ccc(Oc4cc(F)ccc4F)cc3)c3cncc(F)c23)C1 [Compound 6A]
The ratio of the activities of EGFR and BTK (EGFR): 84 fold
IC50 (EGFR): 812 nM
The ratio of the activities of TEC and BTK (TEC): 4-fold
IC50 (TEC): 43.2 nM
IC50 (BTK; [1]): 9.58 nM
IC50 (BTK; Table 2 comparison): 9.58 nM
The ratio of the activities of ITK and BTK (ITK): 764 fold
IC50 (ITK; 120 minutes at room temperature): 7.32 µM

Compound: C=CC(=O)N1CCO[C@H](c2nn(-c3ccc(Oc4c(F)cccc4F)cc3)c3cncc(F)c23)C1 [Compound 3B]
IC50 (BTK; [1]): 2.7 nM

The ratio of the activities of EGFR and BTK (EGFR): 183 fold
IC50 (EGFR): 2020 nM
The ratio of the activities of TEC and BTK (TEC): fold, 15-fold
IC50 (TEC): 169 nM
IC50 (BTK; [1]): 11 nM
IC50 (BTK; Table 2 comparison): 11 nM
The ratio of the activities of ITK and BTK (ITK): > 909 fold
IC50 (ITK; unit μM): > 10 µM
Compound: C=CC(=O)N1CCC[C@@H](c2nn(-c3ccc(Oc4cc(F)cc(F)c4F)cc3)c3cncc(F)c23)C1 (single isomer, unassigned) [Compound 4A]

IC50 (BTK; [1]): 98.1 nM
Compound: C=CC(=O)N1CCC[C@H](c2nn(-c3ccc(Oc4cc(F)cc(F)c4F)cc3)c3cncc(F)c23)C1 (single isomer, unassigned) [Compound 4B]

Compound: C=CC(=O)N1CCC[C@H](c2nn(-c3ccc(Oc4cc(F)ccc4F)cc3)c3cncc(F)c23)C1 [Compound 6B]
IC50 (BTK; [1]): 140 nM

IC50 (BTK; [1]): 31.8 nM
Compound: C=CC(=O)N1CCC[C@@H](c2nn(-c3ccc(Oc4cccc(F)c4F)cc3)c3cncc(F)c23)C1 (single isomer, unassigned) [Compound 5A]

Compound: C=CC(=O)N1CCO[C@@H](c2nn(-c3ccc(Oc4c(F)cccc4F)cc3)c3cncc(F)c23)C1 [Compound 3A]
IC50 (BTK; [1]): 9.58 nM
